Measured values published in publication PMC4947679, “Quantitative In Vitro and In Vivo Evaluation of Intestinal and Blood-Brain Barrier Transport Kinetics of the Plant N-Alkylamide Pellitorine” (BioMed Research International, 2016).
Where two headings read alike, the source gives them in different places.

Experiments:
[1] = In vitro metabolic stability; assay type: in vitro ADME; conditions: pH 7.4; one hour, 37°C; mouse serum, brain homogenate and liver homogenate
Experimental: The in vitro metabolic stability of pellitorine was evaluated in mouse brain and liver homogenates and mouse serum according to previously described protocols. Using the Pierce Modified Lowry Protein Assay method (Thermo Scientific), the protein content of each tissue homogenate was determined to prepare a stock solution containing a 0.6 mg/mL protein concentration in Krebs-Henseleit buffer (pH 7.4). […] After 0, 5, 7.5, 15, 60, and 120 min, aliquots of 100 μL were taken and transferred into 0.5 mL tubes (LoBind Eppendorf) containing 100 μL of 1% (V/V) TFA in water. Next, the samples were heated at 95°C for 5 min and subsequently cooled for 30 min in ice. Thereafter, the samples were centrifuged (20 000 ×g for 30 min at 5°C) and 25 μL of the clear supernatant was injected and analysed using a HPLC-UV/MS method of 46 min which was previously described. The HPLC-MS analysis was done on a HPLC system which consisted of a Spectra System SN4000 interface, a Spectra System SCM1000 degasser, a Spectra System P1000XR pump, a Spectra System AS3000 autosampler, and a Finnigan LCQ Classic ion trap mass spectrometer in positive ion mode (all from Thermo, San José, CA, USA) equipped with Waters 2487 Dual Absorbance detector and Xcalibur 2.0 software (Thermo) for data acquisition. Control solutions were also prepared but without pellitorine. […]

[2] = Blood-to-brain transport, multiple time regression (MTR) analysis in mice
Experimental: Seven-to-ten-week-old female, Institute for Cancer Research, Caesarean Derived-1 (ICR-CD-1) mice (Harlan Laboratories, Venray, Netherlands) weighing 29–32 g were used for the BBB transport experiments. The experiments were performed according to the Ethical Committee principles of laboratory animal welfare as approved by Ghent University (Faculty of Veterinary Medicine, number EC2014/128).
An in vivo multiple time regression (MTR) analysis was performed in order to determine whether pellitorine could enter the brain. A dose solution of 1.8 mg/mL pure pellitorine dissolved in 6.9% EtOH, 2.5% dimethylacetamide, and 0.5% tween 80 (all w/w) diluted in lactated Ringer's solution containing 1% BSA was prepared. After anesthetizing the mice intraperitoneally with a 40% (w/V) urethane solution (3 g/kg), the jugular internalis vein and carotid artery were isolated and 20 μL of the pellitorine dose solution was injected into the jugular vein. After 1, 3, 5, 10, 12.5, and 15 min after injection (with start and end in duplicate), blood was collected from the carotid artery. Immediately thereafter, the mice were decapitated and the brains were isolated. […] The serum concentrations of pellitorine were plotted against the time (expressed in min). The curve was fitted using a first-order kinetic, two-compartment model: C(t) = C 1 × e ^−α×t + C 2 × e ^−β×t, in which C is the concentration of pellitorine in serum at time t, α and β are hybrid constants, dependent on the rate constants k e (elimination rate constant), k 1,2 (rate constant between central and peripheral tissue compartment), k 2,1 (rate constant between peripheral tissue and central compartment), C 1 is the concentration obtained after extrapolation of the distribution phase α to the y-axis, and C 2 is the concentration obtained after extrapolation of the elimination phase β to the y-axis. The ratio of the pellitorine brain and serum concentration (μL/g) was plotted versus the exposure time (θ), which is a derived time variable of the Gjedde-Patlak plot, to determine the BBB influx kinetics of pellitorine.
The exposure time is computed as θ = ∫0 ^T((C s(t) · dt)/C s(T)) and is defined as the integral of the concentration of pellitorine in serum from start (t = 0 min) to time T, divided by the concentration of pellitorine in serum at time T. The integral of the concentration of pellitorine in serum from zero to time T is the area under the curve until time T.
The brain uptake of pellitorine was fitted using a biphasic model, as elaborated by Wong et al.: (4) CbrainT/CsTK·θ+Vg·1−e^−θ·K1−K/Vg+V0≅K=0Vg·1−e^−θ·K1/Vg+V0 in which C brain(T) is the concentration of pellitorine in the brain at time T (ng/g), C s(T) the concentration of pellitorine in serum at time T (ng/μL), K the net clearance (μL/(g·min)), V g the tissue brain distribution volume (μL/g), K 1 the unidirectional clearance from pellitorine from blood to brain (i.e., the unidirectional brain transfer coefficient, also referred to as influx rate) (μL/(g·min)), and V 0 the vascular brain distribution volume (μL/g).

[3] = design: method as in PMID 25481393; conditions: cited from earlier work
[4] = female, ICR-CD-1, mouse, serum, iv, 36 μg/mouse
[5] = mice, intravenous, two-compartment model

CCCCC/C=C/C=C/C(=O)NCC(C)C [pellitorine, deca-2E,4E-dienoic acid isobutylamide]
recovery at 1 h, 0.025 mg/mL [1]: 91 to 105%
Kp ([2]; female, ICR-CD-1, mouse, brain (relative to serum), iv, 36 μg/mouse): 0.792
half-life [2, 4]: 4.48 min
k el [2, 4]: 0.0025 s⁻¹
unidirectional influx rate K 1 ([2]; mice, injection into jugular vein, MTR): 153 µL/g/min
tissue brain distribution volume (V g) ([2]; mice, intravenous, biphasic model): 792 µL/g
C 1 (serum, extrapolation of distribution phase) [2, 5]: 7.02 µg/mL
C 2 (serum, extrapolation of elimination phase) [2, 5]: 0.44 µg/mL
distribution rate constant α ([2]; mouse serum, intravenous, two-compartment model): 1.56 min⁻¹
toxicity during the experiment ([2]; mouse, in vivo, iv): no toxicity was observed
aqueous permeability coefficient K p,aq ([3]; pellitorine from crude plant extract): 2.3 10^−4 cm/h
aqueous permeability coefficient K p,aq ([3]; purified pellitorine): 1.1 10^−4 cm/h
